Test results: patent publication US10752609B2, “GSK-3 inhibitors” (priority 2016, dated 2020)

Tests used:
[1] = system: pTau; test: pTau assay (no method described); format: cell-based
[2] = biological target: GSK3α (Homo sapiens, UniProt P49840); test: GSK3α kinase assay (Caliper LabChip3000 mobility shift, fluoresceinated peptide substrate)
[3] = biological target: GSK3β (Homo sapiens, UniProt P49841); test: GSK3β kinase assay (Caliper LabChip3000 mobility shift, fluoresceinated peptide substrate); format: biochemical; conditions: 250 pM enzyme, 20 uM ATP, 1.5 uM peptide, 20 hours room temperature; first value of cell GSK3β/GSK3α; read-out: GSK3β (nM), IC50
Sequence of GSK3β (P49841 whole entry, species assumed): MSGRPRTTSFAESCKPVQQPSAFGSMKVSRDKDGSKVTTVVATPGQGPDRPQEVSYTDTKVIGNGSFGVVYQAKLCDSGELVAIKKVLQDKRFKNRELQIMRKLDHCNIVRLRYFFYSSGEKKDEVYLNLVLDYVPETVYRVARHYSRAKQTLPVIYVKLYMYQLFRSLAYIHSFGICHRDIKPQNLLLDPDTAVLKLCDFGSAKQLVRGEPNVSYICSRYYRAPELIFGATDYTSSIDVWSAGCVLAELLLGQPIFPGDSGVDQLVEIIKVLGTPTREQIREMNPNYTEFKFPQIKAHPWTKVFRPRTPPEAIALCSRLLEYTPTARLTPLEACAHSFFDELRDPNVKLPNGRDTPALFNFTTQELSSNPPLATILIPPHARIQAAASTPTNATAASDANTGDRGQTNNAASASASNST

Sequence of GSK3α (P49840 whole entry, species assumed): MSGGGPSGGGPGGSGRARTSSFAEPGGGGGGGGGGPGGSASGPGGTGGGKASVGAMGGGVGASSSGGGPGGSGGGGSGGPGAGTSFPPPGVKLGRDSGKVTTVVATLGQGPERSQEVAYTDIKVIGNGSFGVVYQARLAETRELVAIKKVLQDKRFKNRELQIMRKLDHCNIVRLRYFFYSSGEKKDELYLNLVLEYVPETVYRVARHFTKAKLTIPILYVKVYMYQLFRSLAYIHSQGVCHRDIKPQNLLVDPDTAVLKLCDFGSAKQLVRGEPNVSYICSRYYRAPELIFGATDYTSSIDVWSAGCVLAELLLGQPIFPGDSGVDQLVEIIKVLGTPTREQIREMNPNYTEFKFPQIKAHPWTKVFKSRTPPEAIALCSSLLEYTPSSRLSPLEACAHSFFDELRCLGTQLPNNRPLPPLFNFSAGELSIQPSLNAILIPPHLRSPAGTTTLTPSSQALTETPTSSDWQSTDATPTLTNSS

SMILES | IC50 [1] | IC50 [2] | IC50 [3]
O=C(Nc1cnccc1OCC(F)(F)F)c1ccnc(Nc2ccc(F)cc2)n1 [Example 55, 2-((4-Fluorophenyl)amino)-N-(4-(2,2,2-trifluoroethoxy)pyridin-3-yl)pyrimidine-4-carboxamide] | 7.6 nM | 0.16 nM | 0.26 nM
O=C(Nc1cnccc1OCC(F)(F)F)c1ccnc(Nc2ccc(Cl)cc2)n1 [Example 56, 2-((4-Chlorophenyl)amino)-N-(4-(2,2,2-trifluoroethoxy)pyridin-3-yl)pyrimidine-4-carboxamide] | 5.9 nM | 0.15 nM | 0.25 nM
N#Cc1ccc(Nc2nccc(C(=O)Nc3cnccc3OCC(F)(F)F)n2)cc1 [Example 57, 2-((4-Cyanophenyl)amino)-N-(4-(2,2,2-trifluoroethoxy)pyridin-3-yl)pyrimidine-4-carboxamide] | 1.4 nM | 0.07 nM | 0.08 nM
O=C(Nc1cnccc1OCC(F)(F)F)c1ccnc(Nc2ccc(C(F)(F)F)cc2)n1 [Example 58, N-(4-(2,2,2-Trifluoroethoxy)pyridin-3-yl)-2-((4-(trifluoromethyl)phenyl)amino)pyrimidine-4-carboxamide] | 10 nM | 0.18 nM | 0.3 nM
O=C(Nc1cnccc1OCC(F)(F)F)c1ccnc(Nc2ccc(OC(F)(F)F)cc2)n1 [Example 59, N-(4-(2,2,2-Trifluoroethoxy)pyridin-3-yl)-2-((4-(trifluoromethoxy)phenyl)amino)pyrimidine-4-carboxamide] | 8.2 nM | 0.21 nM | 0.18 nM
O=C(Nc1cnccc1OCC(F)(F)F)c1ccnc(Nc2ccc(Cl)cc2F)n1 [Example 61, 2-((4-Chloro-2-fluorophenyl)amino)-N-(4-(2,2,2-trifluoroethoxy)pyridin-3-yl)pyrimidine-4-carboxamide] | 230 nM | 0.39 nM | 0.72 nM
COc1ccc(Nc2nccc(C(=O)Nc3cnccc3OCC(F)(F)F)n2)cc1F [Example 62, 2-((3-Fluoro-4-methoxyphenyl)amino)-N-(4-(2,2,2-trifluoroethoxy)pyridin-3-yl)pyrimidine-4-carboxamide] | 230 nM | 0.09 nM | 0.08 nM
O=C(Nc1cnccc1OCC(F)(F)F)c1ccnc(Nc2ccc(OC(F)F)nc2)n1 [Example 63, 2-((6-(Difluoromethoxy)pyridin-3-yl)amino)-N-(4-(2,2,2-trifluoroethoxy)pyridin-3-yl)pyrimidine-4-carboxamide] | 3 nM | 0.13 nM | 0.18 nM
O=C(Nc1cnccc1OCC(F)(F)F)c1ccnc(Nc2ccc(C(F)(F)F)nc2)n1 [Example 64, N-(4-(2,2,2-Trifluoroethoxy)pyridin-3-yl)-2-((6-(trifluoromethyl)pyridin-3-yl)amino)pyrimidine-4-carboxamide] | 8.5 nM | 0.19 nM | 0.2 nM
CC(C)OCCCNc1nccc(C(=O)Nc2cnccc2OCC(F)(F)F)n1 [Example 65, 2-((3-Isopropoxypropyl)amino)-N-(4-(2,2,2-trifluoroethoxy)pyridin-3-yl)pyrimidine-4-carboxamide] | 86 nM | 1.4 nM | 2 nM
N#Cc1ccc(Nc2nccc(C(=O)Nc3cncnc3OCC(F)(F)F)n2)cc1 [Example 66, 2-((4-Cyanophenyl)amino)-N-(4-(2,2,2-trifluoroethoxy)pyrimidin-5-yl)pyrimidine-4-carboxamide] | 22 nM | 0.67 nM | 1 nM
O=C(Nc1cncnc1OCC(F)(F)F)c1ccnc(Nc2ccc(Cl)cc2)n1 [Example 67, 2-((4-Chlorophenyl)amino)-N-(4-(2,2,2-trifluoroethoxy)pyrimidin-5-yl)pyrimidine-4-carboxamide] | 90 nM | 0.36 nM | 0.97 nM
O=C(Nc1cncnc1OCC(F)(F)F)c1ccnc(Nc2ccc(C(F)(F)F)cc2)n1 [Example 68, N-(4-(2,2,2-Trifluoroethoxy)pyrimidin-5-yl)-2-((4-(trifluoromethyl)phenyl)amino)pyrimidine-4-carboxamide] | 90 nM | 1.3 nM | 0.73 nM
O=C(Nc1cncnc1OCC(F)(F)F)c1ccnc(Nc2ccc(OC(F)(F)F)cc2)n1 [Example 69, N-(4-(2,2,2-Trifluoroethoxy)pyrimidin-5-yl)-2-((4-(trifluoromethoxy)phenyl)amino)pyrimidine-4-carboxamide] | 160 nM | 0.6 nM | 0.56 nM
O=C(Nc1cncnc1OCC(F)(F)F)c1ccnc(Nc2ccc(Cl)cc2F)n1 [Example 71, 2-((4-Chloro-2-fluorophenyl)amino)-N-(4-(2,2,2-trifluoroethoxy)pyrimidin-5-yl)pyrimidine-4-carboxamide] | 1000 nM | 4.2 nM | 8 nM
O=C(Nc1cncnc1OCC(F)(F)F)c1ccnc(Nc2cc(F)c(Cl)cc2F)n1 [Example 72, 2-((4-Chloro-2,5-difluorophenyl)amino)-N-(4-(2,2,2-trifluoroethoxy)pyrimidin-5-yl)pyrimidine-4-carboxamide] | 290 nM | 1.1 nM | 1.6 nM
O=C(Nc1cncnc1OCC(F)(F)F)c1ccnc(Nc2ccc(OC(F)F)nc2)n1 [Example 73, 2-((6-(Difluoromethoxy)pyridin-3-yl)amino)-N-(4-(2,2,2-trifluoroethoxy)pyrimidin-5-yl)pyrimidine-4-carboxamide] | 22 nM | 0.18 nM | 0.26 nM
CC(C)OCCCNc1nccc(C(=O)Nc2cncnc2OCC(F)(F)F)n1 [Example 74, 2-((3-Isopropoxypropyl)amino)-N-(4-(2,2,2-trifluoroethoxy)pyrimidin-5-yl)pyrimidine-4-carboxamide] | 890 nM | 4.5 nM | 5.9 nM
O=C(Nc1cncnc1Nc1ccccc1)c1ccnc(Nc2ccccc2)n1 [Example 75, 2-(Phenylamino)-N-(4-(phenylamino)pyrimidin-5-yl)pyrimidine-4-carboxamide] | 4500 nM | 33 nM | 48 nM
O=C(Nc1cncnc1OCC(F)(F)F)c1ccnc(Nc2ccccc2)n1 [Example 76, 2-(Phenylamino)-N-(4-(2,2,2-trifluoroethoxy)pyrimidin-5-yl)pyrimidine-4-carboxamide] | 77 nM | 0.56 nM | 1.1 nM
COc1ccc(Nc2nccc(C(=O)Nc3cncnc3OCC(F)(F)F)n2)cc1 [Example 77, 2-((4-Methoxyphenyl)amino)-N-(4-(2,2,2-trifluoroethoxy)pyrimidin-5-yl)pyrimidine-4-carboxamide] | 100 nM | 0.47 nM | 0.79 nM
COc1ccc(Nc2nccc(C(=O)Nc3cncnc3Nc3ccc(OC)cc3)n2)cc1 [Example 78, 2-Amino-N-(6-methylpyridin-3-yl)pyrimidine-4-carboxamide 2-((4-methoxyphenyl)amino)-N-(4-((4-methoxyphenyl)amino)pyrimidin-5-yl)pyrimidine-4-carboxamide] | 2900 nM | 15 nM | 28 nM
O=C(Nc1cncnc1NCC1CC1)c1ccnc(Nc2ccccc2)n1 [Example 79, N-(4-((Cyclopropylmethyl)amino)pyrimidin-5-yl)-2-(phenylamino)pyrimidine-4-carboxamide] | 8000 nM | 98 nM | 160 nM
